Reference: patent US20170071976A1, “PHARMACEUTICAL SOLUTION HAVING ANTI-TUMOR EFFECT-ENHANCING AND TOXICITY-REDUCING EFFECT, AND PHARMACEUTICAL COMPOSITION COMPRISING SAME” (priority 2014, published 2017)

What was measured:
Test in all cases: MTT assay: in vitro inhibition of growth by deuterium oxide
Format in all cases: cell-based, human
[1] = system: HeLa cervical cancer cell line
Experimental: (§1) Studies of in vitro inhibition of growth of human tumor cells by deuterium oxide, by the MTT (3-(4,5-dimethylthiazol-2-yl)-2,5-diphenyltetrazolium bromide) assay
(§2) 1. A bottle of cells that had been cultured for 3 to 4 days and were in the exponential phase was taken, a suitable amount of 0.25% Trypsin-EDTA solution was added thereto to detach the cells from the wall, and the cells were suspended in 10 ml RPMI 1640 medium containing 10% FBS. 2. The cells were counted on a hemocytometer, and generally viable cells should be not less than 97%. 3. The cell suspension was diluted with a complete medium to prepare a suspension containing 1×10^4 cells/ml. 4. To each well of a 12-well culture plate, 300 μl cell suspension was added. The addition of cells should be finished within 4 hours. The plate was placed in an incubator at 37° C. and 5% CO2 for 24 hours. 5. Powdery RPMI Medium 1640 (Gibco, USA, Cat#: 31800-022) was dissolved in deuterium oxide (provided by Cambridge Isotope Laboratories, Inc. (US)) to prepare a cell culture medium (unless particularly specified, all culture media used in the Examples hereinafter were prepared from powdery RPMI Medium 1640 and deuterium oxide) at a concentration shown in Table 1, which was added into the cell culture plate. 6. The cell culture plate was incubated for 3 days in an incubator at 37° C., 5% CO2 and 100% humidity. 7. A solution of 1 mg/ml MTT was prepared in a serum-free RPMI1640 medium, added to the plate at 200 μl/well, and incubated at 37° C. for 4 hours, to allow MTT to be reduced to formazan. 8. The supernatant was removed by pipetting, 200 μl DMSO was added to dissolve formazan, and the solution was well mixed on a platform shaker. 9. Absorbance of each well was measured on an ELISA reader with a detection wavelength of 570 nm and a reference wavelength of 450 nm. 10. The assay was repeated one more time.
(§3) Calculation of results: Inhibition of growth of tumor cells by deuterium oxide was calculated using tumor cells treated with sodium chloride physiological solution as a control group. Inhibition of cell growth was plotted against amounts of deuterium oxide to obtain a dose response curve, from which the half maximal inhibitory concentration (IC50) of deuterium oxide was derived.
(§4) Inhibition of tumor cell growth (%)=(1−OD test/OD control)×100%

[2] = system: PANC-1 pancreatic cancer cell line
Experimental: as §1, §2, §3, §4

[3] = system: A549 lung cancer cell line
Experimental: as §1, §2, §3, §4

[4] = system: U2-OS osteosarcoma cell line
Experimental: as §1, §2, §3, §4

[5] = system: BGC-823 gastric cancer cell line
Experimental: as §1, §2, §3, §4

[6] = system: Caov-3 ovarian cancer cell line; conditions: expressed in v/v %
Experimental: as §1, §2, §3, §4

[7] = system: SF767 brain cancer cell line
Experimental: as §1, §2, §3, §4

[8] = system: NCI-H460 lung cancer cell line
Experimental: as §1, §2, §3, §4

[9] = system: SKOV3 ovarian cancer cell line
Experimental: as §1, §2, §3, §4

[2H]O[2H] [Deuterium oxide]
Inhibition of growth (%) ([1]; deuterium oxide 1.2% (v/v)): 12.11% | Inhibition of growth (%) ([1]; deuterium oxide 2.5% (v/v)): 14.44% | Inhibition of growth (%) ([1]; deuterium oxide 5% (v/v)): 16.25% | Inhibition of growth (%) ([1]; deuterium oxide 10% (v/v)): 28.87% | Inhibition of growth (%) ([1]; deuterium oxide 20% (v/v)): 36.12% | Inhibition of growth (%) ([1]; deuterium oxide 30% (v/v)): 45.41% | Inhibition of growth (%) ([1]; deuterium oxide 40% (v/v)): 58.26% | Inhibition of growth (%) ([1]; deuterium oxide 50% (v/v)): 65.63% | Inhibition of growth (%) ([1]; deuterium oxide 60% (v/v)): 73.32% | Inhibition of growth (%) ([1]; deuterium oxide 70% (v/v)): 85.82% | Inhibition of growth (%) ([1]; deuterium oxide 80% (v/v)): 90.11% | IC10 ([1]; expressed in v/v %): 1.8% | IC50 ([1]; expressed in v/v %): 68.33% | Inhibition of growth (%) ([2]; deuterium oxide 1.2% (v/v)): 7.37% | Inhibition of growth (%) ([2]; deuterium oxide 2.5% (v/v)): 13.88% | Inhibition of growth (%) ([2]; deuterium oxide 5% (v/v)): 14.41% | Inhibition of growth (%) ([2]; deuterium oxide 10% (v/v)): 8.43% | Inhibition of growth (%) ([2]; deuterium oxide 20% (v/v)): 9.06% | Inhibition of growth (%) ([2]; deuterium oxide 30% (v/v)): 17.81% | Inhibition of growth (%) ([2]; deuterium oxide 40% (v/v)): 26.73% | Inhibition of growth (%) ([2]; deuterium oxide 50% (v/v)): 31.62% | Inhibition of growth (%) ([2]; deuterium oxide 60% (v/v)): 50.31% | Inhibition of growth (%) ([2]; deuterium oxide 70% (v/v)): 57.29% | Inhibition of growth (%) ([2]; deuterium oxide 80% (v/v)): 79.05% | IC10 ([2]; expressed in v/v %): 3.03% | IC50 ([2]; expressed in v/v %): 65.38% | Inhibition of growth (%) ([3]; deuterium oxide 1.2% (v/v)): 7.71% | Inhibition of growth (%) ([3]; deuterium oxide 2.5% (v/v)): 17.64% | Inhibition of growth (%) ([3]; deuterium oxide 5% (v/v)): 18.05% | Inhibition of growth (%) ([3]; deuterium oxide 10% (v/v)): 18.88% | Inhibition of growth (%) ([3]; deuterium oxide 20% (v/v)): 16.19% | Inhibition of growth (%) ([3]; deuterium oxide 30% (v/v)): 27.71% | Inhibition of growth (%) ([3]; deuterium oxide 40% (v/v)): 39.37% | Inhibition of growth (%) ([3]; deuterium oxide 50% (v/v)): 42.67% | Inhibition of growth (%) ([3]; deuterium oxide 60% (v/v)): 55.42% | Inhibition of growth (%) ([3]; deuterium oxide 70% (v/v)): 70.88% | Inhibition of growth (%) ([3]; deuterium oxide 80% (v/v)): 92.34% | IC10 ([3]; expressed in v/v %): 1.52% | IC50 ([3]; expressed in v/v %): 55.32% | Inhibition of growth (%) ([4]; deuterium oxide 1.2% (v/v)): −2.81% | Inhibition of growth (%) ([4]; deuterium oxide 2.5% (v/v)): 4.20% | Inhibition of growth (%) ([4]; deuterium oxide 5% (v/v)): −1.64% | Inhibition of growth (%) ([4]; deuterium oxide 10% (v/v)): −8.55% | Inhibition of growth (%) ([4]; deuterium oxide 20% (v/v)): −3.12% | Inhibition of growth (%) ([4]; deuterium oxide 30% (v/v)): 11.99% | Inhibition of growth (%) ([4]; deuterium oxide 40% (v/v)): 10.23% | Inhibition of growth (%) ([4]; deuterium oxide 50% (v/v)): 18.21% | Inhibition of growth (%) ([4]; deuterium oxide 60% (v/v)): 23.43% | Inhibition of growth (%) ([4]; deuterium oxide 70% (v/v)): 29.64% | Inhibition of growth (%) ([4]; deuterium oxide 80% (v/v)): 45.84% | IC10 ([4]; expressed in v/v %): 24.99% | IC50 ([4]; expressed in v/v %): 86.25% | Inhibition of growth (%) ([5]; deuterium oxide 1.2% (v/v)): 2.74% | Inhibition of growth (%) ([5]; deuterium oxide 2.5% (v/v)): 2.15% | Inhibition of growth (%) ([5]; deuterium oxide 5% (v/v)): −4.23% | Inhibition of growth (%) ([5]; deuterium oxide 10% (v/v)): −3.60% | Inhibition of growth (%) ([5]; deuterium oxide 20% (v/v)): 9.09% | Inhibition of growth (%) ([5]; deuterium oxide 30% (v/v)): 12.32% | Inhibition of growth (%) ([5]; deuterium oxide 40% (v/v)): 7.50% | Inhibition of growth (%) ([5]; deuterium oxide 50% (v/v)): 15.99% | Inhibition of growth (%) ([5]; deuterium oxide 60% (v/v)): 37.83% | Inhibition of growth (%) ([5]; deuterium oxide 70% (v/v)): 61.90% | Inhibition of growth (%) ([5]; deuterium oxide 80% (v/v)): 74.57% | IC10 ([5]; expressed in v/v %): 26.92% | IC50 ([5]; expressed in v/v %): 96.68% | IC10 [6]: 11.51% | IC50 [6]: 46.83% | Inhibition of growth (%) ([7]; deuterium oxide 1.2% (v/v)): 4.76% | Inhibition of growth (%) ([7]; deuterium oxide 2.5% (v/v)): 3.94% | Inhibition of growth (%) ([7]; deuterium oxide 5% (v/v)): −4.41% | Inhibition of growth (%) ([7]; deuterium oxide 10% (v/v)): −8.43% | Inhibition of growth (%) ([7]; deuterium oxide 20% (v/v)): 7.66% | Inhibition of growth (%) ([7]; deuterium oxide 30% (v/v)): 8.42% | Inhibition of growth (%) ([7]; deuterium oxide 40% (v/v)): 16.50% | Inhibition of growth (%) ([7]; deuterium oxide 50% (v/v)): 21.23% | Inhibition of growth (%) ([7]; deuterium oxide 70% (v/v)): 49.65% | Inhibition of growth (%) ([7]; deuterium oxide 80% (v/v)): 71.22% | IC10 ([7]; expressed in v/v %): 31.85% | IC50 ([7]; expressed in v/v %): 91.12% | Inhibition of growth (%) ([8]; deuterium oxide 1.2% (v/v)): 1.15% | Inhibition of growth (%) ([8]; deuterium oxide 2.5% (v/v)): 9.40% | Inhibition of growth (%) ([8]; deuterium oxide 5% (v/v)): 11.27% | Inhibition of growth (%) ([8]; deuterium oxide 10% (v/v)): 9.47% | Inhibition of growth (%) ([8]; deuterium oxide 20% (v/v)): 11.60% | Inhibition of growth (%) ([8]; deuterium oxide 30% (v/v)): 30.58% | Inhibition of growth (%) ([8]; deuterium oxide 40% (v/v)): 42.05% | Inhibition of growth (%) ([8]; deuterium oxide 50% (v/v)): 53.09% | Inhibition of growth (%) ([8]; deuterium oxide 60% (v/v)): 69.50% | Inhibition of growth (%) ([8]; deuterium oxide 70% (v/v)): 82.33% | Inhibition of growth (%) ([8]; deuterium oxide 80% (v/v)): 98.06% | IC10 ([8]; expressed in v/v %): 5.60% | IC50 ([8]; expressed in v/v %): 48.75% | Inhibition of growth (%) ([9]; deuterium oxide 1.2% (v/v)): 1.82% | Inhibition of growth (%) ([9]; deuterium oxide 2.5% (v/v)): 7.35% | Inhibition of growth (%) ([9]; deuterium oxide 5% (v/v)): 8.33% | Inhibition of growth (%) ([9]; deuterium oxide 10% (v/v)): 9.65% | Inhibition of growth (%) ([9]; deuterium oxide 20% (v/v)): 12.64% | Inhibition of growth (%) ([9]; deuterium oxide 30% (v/v)): 16.69% | Inhibition of growth (%) ([9]; deuterium oxide 40% (v/v)): 32.76% | Inhibition of growth (%) ([9]; deuterium oxide 50% (v/v)): 41.80% | Inhibition of growth (%) ([9]; deuterium oxide 60% (v/v)): 59.84% | Inhibition of growth (%) ([9]; deuterium oxide 70% (v/v)): 74.07% | Inhibition of growth (%) ([9]; deuterium oxide 80% (v/v)): 90.42%
